From US10376545B2, “Methods for producing hormone secreting cells in a subject” (ViaCyte, Inc., priority 2013, dated 2019)

Key:
[1] = tested on: INS, GCG, SST, GHRL, PDX1, NKX6.1, NGN3, ID1 expression; test: Nanostring mRNA analysis of endocrine cell cultures; type: cell-based, human; conditions: for pancreatic-lineage gene expression: agent at days 30-35 during stage 7, analyzed at d35
[2] = tested on: re-aggregated endocrine cell aggregates; test: Cell-to-cell association of re-aggregated endocrine cell aggregates (stereomicroscope images); type: cell-based, human; conditions: 10 μM Y-27632, Matrigel 0.05% v/v
Procedure: In Example 11 above, the cell aggregates were dissociated and re-aggregated or re-associated between stage 6 and 7. Dissociation was performed using Accutase on or around day 20 and re-aggregated in rotation culture, substantially as described in Schulz et al. supra. The re-aggregation removes certain PEC sub-populations including any remaining non-endocrine (CHGA−) sub-populations as well as other non-endocrine cells as described in more detail in Kelly et al. (2011), supra. Endocrine cells have affinity for each other, however, this interaction in vitro is relatively weak, even the re-aggregated cells at stages 6/7 were only loosely associated. So, studies were performed to test various factors and agents for their ability to increase the cell-to-cell interactions within the endocrine cell aggregates.
The combination of Y-27632 and Matrigel increased at least for example the cell-to-cell interaction of the cell aggregates over either component alone.
A differentiated culture produced substantially as described in Example 12, at day 20 was dissociated with Accutase and re-aggregated in db with 5% FBS (lower concentrations of FBS, i.e. 2% or 1% are also effective) and DNAse. Y-27632 was not included in the re-aggregation medium as doing so would result in incorporation of non-endocrine (CHGA−) sub-population as well as other non-endocrine cells into the newly formed aggregates. […]

[3] = tested on: hES-derived cell aggregates; test: Cell aggregate size / cell mass in suspension culture (imaging); type: cell-based, human; conditions: 3 days of 50 ng/mL at stage 3 as compared to 2 days
Procedure: Preliminary studies were performed using Heregulin and FGF. In certain of these studies, Rho-kinase inhibitor, Y-27632, was included. […] An increase in cell aggregate size is advantageous in that it results in higher cell mass for later implantation and testing for function in animals.
Various growth factors were explored for their ability to suppress genes such as NGN3 during stages 3 and 4. One candidate growth factor was Activin which has diverse functions in stem cell expansion and differentiation. For example, at low levels (e.g. 10 ng/mL), Activin helps maintain pluripotent stem cell pluripotency and cell proliferation. At higher levels (e.g. 100 ng/mL) Activin acts as a differentiation growth factor responsible for definitive endoderm production at stage 1 (see e.g., Table 8). To test its effect on repressing cells committed to the endocrine lineage (CHGA+) during PEC formation, Applicant first tested Activin at a mid-level concentration of about 50 ng/mL with standard adherent differentiation.
So, Activin levels less than about 25 ng/mL are acceptable for maintaining cell mass and yield. Applicant then performed flow cytometry analysis on these cell cultures to determine whether Activin at low levels during stages 3 and 4 had any effect on cell aggregate composition; see Table 14. […]

PEC derived from hESC = test: Flow cytometry analysis of PEC derived from hESC (CHGA, NKX6.1, PDX1 sub-populations); type: cell-based, human
Procedure: So, Activin levels less than about 25 ng/mL are acceptable for maintaining cell mass and yield. Applicant then performed flow cytometry analysis on these cell cultures to determine whether Activin at low levels during stages 3 and 4 had any effect on cell aggregate composition; see Table 14. […] Advantageously, the PDX1 only and Triple Negative sub-populations are reduced as compared to the control, particularly when Activin is used in stages 3 and 4.
To determine the cell composition of the PEC population with the combination of Activin, Heregulin and Wnt during stage 3, flow cytometry was performed after stage 4 and the PEC cellular composition is shown in Table 14. […] Data from flow cytometry supports and is consistent with data from QPCR that the combination of the three factors (AHW) in general delayed or suppressed differentiation of cells committed to the endocrine lineage (CHGA+) in PEC without affecting the production of the non-endocrine (CHGA−) sub-population. The delayed expression of these genes in vitro is consistent with their on-set (or delay) in in vivo mammalian pancreatic development, whereby NGN3 expression in endocrine differentiation occurs after the on-set of PDX1 and NKX6.1 expression in the non-endocrine (CHGA−) sub-population. Additionally, there was no compromise in the PEC mass and yield. […]
Undifferentiated human ESC were expanded and differentiated substantially as described above in Table 17 Protocol #1 for stages 1-4 and in Schulz et al. (2012) supra, except that during the three (3) days of stage 3, 4 different conditions were compared: (i) 0 noggin (“no noggin”) for all 3 days; (ii) 1 day of Noggin at 50 ng/mL and 2 days with no additional Noggin; (iii) 2 days of Noggin at 50 ng/mL and 1 day with no additional noggin; and (iv) 3 days of Noggin at 50 ng/mL. After stage 3, each of these conditions (i) through (iv) then received the standard stage 4 differentiation media cocktail according to Table 8 and Table 17, but without additional Noggin. […] Moreover, with each additional day of noggin treatment, fewer non-endocrine multipotent pancreatic progenitor sub-populations were produced (compare 90.6% with no noggin to 64.6% with 3 days of noggin treatment).

SOX17 expression = conditions: 1 μg/mL of insulin; cited from earlier work
[4] = 50 ng/mL of FGF2 for 2 days at stage 3
[5] = 50 ng/mL of FGF2 for 3 days at stage 3

Compound: CC(C)(C(=O)NCC(F)(F)C(F)(F)F)C(=O)N[C@@H]1C(=O)Nc2ccccc2-c2ccccc21 [RO4929097, reference compound]
- NGN3 expression ([1]; 1 μM for 2 days at stage 5, day 15 versus day 13): strongly induced NGN3 expression

Compound: C/C(=C\c1ccc(C(=O)O)cc1)c1ccc2c(c1)C(C)(C)CCC2(C)C [TTNPB, 4-[(E)-2-(5,6,7,8-Tetrahydro-5,5,8,8-tetramethyl-2-naphthalenyl)-1-propenyl]benzoic acid, reference compound]
- PDX1 expression ([1]; 0.5 nM alone at stages 6 & 7 or stage 7 alone): does not appear to increase PDX1 expression

Compound: C[C@@H](N)[C@H]1CC[C@H](C(=O)Nc2ccncc2)CC1 [Y-27632]
- cell associations of re-aggregated endocrine cell aggregates [2]: capable of promoting tighter cell associations

Compound: NC(=O)c1cccnc1 [nicotinamide, reference compound]
- increase in the INS/GCG expression ratio ([1]; stage 6 culture conditions, analyzed at day 21): 3 fold

Compound: FGF1: acidic FGF
- pancreatic-lineage gene expression [1]: upregulated GCG and SST

Compound: FGF2: Fibroblast growth factor 2
- pancreatic-lineage gene expression [1]: significant increase in SST expression
- cell aggregate size [3]: An increase in cell aggregate size was also observed
- CHGA+ (Endocrine) (PEC derived from hESC; [4]): 11.9%
- CHGA− NKX6.1− PDX1− (Triple Negative/Residual Cells) (PEC derived from hESC; [4]): 9.15%
- CHGA−, NKX6.1+, PDX1+ (Non-endocrine) (PEC derived from hESC; [4]): 79%
- CHGA+ (Endocrine) (PEC derived from hESC; [5]): 0.33%
- CHGA− NKX6.1− PDX1− (Triple Negative/Residual Cells) (PEC derived from hESC; [5]): 22.7%
- CHGA−, NKX6.1+, PDX1+ (Non-endocrine) (PEC derived from hESC; [5]): 76.9%

Compound: IGF2: Insulin-like growth factor II
- INS expression ([1]; 25 or 100 ng/mL from day 17 for about 3 days, stage 6, data not shown): more capable of inducing INS expression than IGF1

Compound: insulin
- SOX17 expression is reduced (SOX17 expression): 4 fold
